Assay results from paper PMC12797170, “Potent Competitive Inhibitors of Ecto-5′-nucleotidase (CD73) based on 6‑(Het)aryl-7-deazapurine Ribonucleoside 5′‑O‑Bisphosphonates” (ACS Pharmacology & Translational Science, 2025).
Converted amounts (≈) assume the structure as drawn. Where two headings read alike, the source gives them in different places. Values belong to the compound of their own block, whether it stands above or below them.

Tests used:
[1] = Microsomal stability assay, mouse liver microsomes; format: in vitro ADME; details: for Mics (m) comp remaining 60 min: 10 μM; for microsomal CLint at 10 µM: pooled liver microsomes, pH 7.4, read-out: Mics (m) CLint
[2] = biological target: T1, recombinant human CD73 (hCD73) (Homo sapiens, UniProt P21589); test: CD73 activity assay on recombinant human CD73; format: biochemical; details: ΔGexp = RT ln Ki
T1 sequence (P21589 27-574): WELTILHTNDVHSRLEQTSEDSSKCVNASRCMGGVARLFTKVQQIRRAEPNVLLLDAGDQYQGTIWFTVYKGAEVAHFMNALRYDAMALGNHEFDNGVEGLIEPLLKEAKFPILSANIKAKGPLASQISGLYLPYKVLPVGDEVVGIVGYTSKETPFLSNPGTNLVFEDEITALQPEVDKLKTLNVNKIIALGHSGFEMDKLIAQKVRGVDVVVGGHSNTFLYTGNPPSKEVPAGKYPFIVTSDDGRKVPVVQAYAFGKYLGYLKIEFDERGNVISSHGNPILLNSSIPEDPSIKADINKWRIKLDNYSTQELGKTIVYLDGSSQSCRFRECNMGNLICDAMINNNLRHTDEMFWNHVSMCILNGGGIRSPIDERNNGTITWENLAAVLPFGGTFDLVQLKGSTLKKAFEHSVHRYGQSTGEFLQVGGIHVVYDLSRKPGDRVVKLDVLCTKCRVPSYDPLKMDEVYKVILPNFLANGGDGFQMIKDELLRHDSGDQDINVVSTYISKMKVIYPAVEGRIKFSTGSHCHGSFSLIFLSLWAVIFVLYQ

[3] = in vitro; details: mouse, plasma
[4] = in vitro; details: human, plasma
[5] = Plasma protein binding, equilibrium dialysis, human plasma; format: in vitro ADME; details: undiluted plasma
[6] = tested on: CCRF-CEM; test: In vitro cytotoxic activity; format: cell-based; details: Homo sapiens
Experimental: (§1) All the compounds were also tested for their in vitro cytotoxic activity on a small panel of four cancer cell lines (CCRF-CEM, HepG2, HeLa S3, HL-60) and nonmalignant human dermal fibroblasts (NHDF).

[7] = tested on: nonmalignant human dermal fibroblasts (NHDF); test: In vitro cytotoxic activity; format: cell-based
Experimental: as §1

[8] = tested on: HL-60; test: In vitro cytotoxic activity; format: cell-based; details: Homo sapiens
Experimental: as §1

[9] = tested on: HepG2; test: In vitro cytotoxic activity; format: cell-based; details: Homo sapiens
Experimental: as §1

[10] = tested on: HeLa S3; test: In vitro cytotoxic activity; format: cell-based; details: Homo sapiens
Experimental: as §1

[11] = Plasma protein binding, mouse plasma; format: in vitro ADME; details: mouse, plasma
[12] = Microsomal stability assay, human liver microsomes; format: in vitro ADME; details: for Mics (hu) comp remaining 60 min: 10 μM; for microsomal CLint at 10 µM: pooled liver microsomes, pH 7.4, read-out: Mics (hu) CLint
[13] = In vivo pharmacokinetic study, intravenous; design: species or system male CD-1 mice; details: for half-life / t1/2 (half-life): footnote: t1/2 stability in plasma, text: half-life in mouse PK
Experimental: The pharmacokinetic study was performed by Bienta (Enamine Biology Services) using male CD-1 mice (3 animals, 9 weeks old, body weight ranging from 29.2 to 33.7 g) following intravenous administration. Levels of the test compound were determined by LC-MS/MS in blood plasma over time (seven sampling time points: 5, 15, 30, 60, 120, 240, and 480 min) after a single dose.
Animal treatment and samples preparation were conducted by the Animal Laboratory personnel at Enamine/Bienta.

[14] = Kinetic solubility in PBS; format: physicochemical; details: phosphate-buffered saline, pH 7.4, aqueous buffer, kinetic from dmso stock
How it was run: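 Echo-MS quantitation with calibration from 0.05 to 4 μM, after 1:99 dilution of filtrate into 50% acetonitrile. Filtrate came from a 100 μM PBS (pH 7.4) solution equilibrated 2 h at room temperature with shaking, in duplicate.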

[15] = human plasma protein binding, read-out: PPB (hu) (converted)
[16] = mouse plasma protein binding, read-out: PPB (m) (converted)
[17] = male, CD-1, mouse, plasma, iv, 1 mg/kg, intravenous
[18] = mouse, plasma, 1 mg/kg, male CD-1 mice, intravenous, single dose, read-out: Cl (obs), observed clearance
[19] = Tables 1 and 3, human plasma as printed in footnote, read-out: fup, fraction unbound in human plasma
[20] = in vivo PK in mice, unit not given

Structure (SMILES): O=P(O)(O)CP(=O)(O)OC[C@H]1O[C@@H](n2ccc3c(-c4ccsc4)ncnc32)[C@H](O)[C@@H]1O [4A.4]
dG_exp, experimental binding free energy [2]: –13.2 kcal/mol
half-life at 10 µM [3]: > 120 min
half-life at 10 µM [4]: > 120 min
fraction unbound at 4 h, 100 µM [5, 19]: 0.82
fraction unbound at 4 h, 100 µM [5, 15]: 0.125
IC50 [6]: 9.7 µM
IC50 [7]: > 10 µM
IC50 [8]: 3.4 µM
IC50 [9]: > 10 µM
IC50 [10]: > 10 µM
fraction unbound at 4 h, 100 µM [11, 16]: 0.726
t1/2 (half-life) ([13]; intravenous): 4.5 min
clearance [13, 20]: high clearance
half-life [13, 17]: 5 min
clearance [13, 18]: 12 mL/min/kg
solubility at 2 h [14]: 90 µM (≈ 44.2 µg/mL)

Structure (SMILES): O=P(O)(O)CP(=O)(O)OC[C@H]1O[C@@H](n2ccc3c(-c4cc5ccccc5o4)ncnc32)[C@H](O)[C@@H]1O [4A.8]
dG_exp, experimental binding free energy [2]: –13.5 kcal/mol
half-life at 10 µM [3]: > 120 min
half-life at 10 µM [4]: > 120 min
fraction unbound at 4 h, 100 µM [5, 19]: 0.37
fraction unbound at 4 h, 100 µM [5, 15]: 0.019
IC50 [6]: > 10 µM
IC50 [7]: > 10 µM
IC50 [8]: > 10 µM
IC50 [9]: > 10 µM
IC50 [10]: > 10 µM
fraction unbound at 4 h, 100 µM [11, 16]: 0.371
t1/2 (half-life) ([13]; intravenous): 8.5 min
clearance [13, 20]: high clearance
half-life [13, 17]: 9 min
clearance [13, 18]: 11 mL/min/kg
solubility at 2 h [14]: 98 µM (≈ 51.5 µg/mL)

Structure (SMILES): O=P(O)(O)CP(=O)(O)OC[C@H]1O[C@@H](n2ccc3c(-c4cccc5ccccc45)ncnc32)[C@H](O)[C@@H]1O [4A.6]
dG_exp, experimental binding free energy [2]: –14.4 kcal/mol
half-life at 10 µM [3]: > 120 min
half-life at 10 µM [4]: > 120 min
fraction unbound at 4 h, 100 µM [5, 19]: 0.63
fraction unbound at 4 h, 100 µM [5, 15]: 0.086
IC50 [6]: > 10 µM
IC50 [7]: > 10 µM
IC50 [8]: > 10 µM
IC50 [9]: > 10 µM
IC50 [10]: > 10 µM
fraction unbound at 4 h, 100 µM [11, 16]: 0.626
half-life [13, 17]: 170 min
clearance ([13]; male, CD-1, mouse, plasma, iv, 1 mg/kg, in vivo PK in mice, unit inferred, read-out: clearance): 1.4 mL/min/kg
solubility at 2 h [14]: 62 µM (≈ 33.2 µg/mL)

The next lines start with results.

Mics (m) comp remaining 60 min [1]: 112%
microsomal CLint at 10 µM [1]: < 2 µL/min/mg
dG_exp, experimental binding free energy [2]: –14.6 kcal/mol
half-life at 10 µM [3]: > 120 min
half-life at 10 µM [4]: > 120 min
fraction unbound at 4 h, 100 µM [5, 15]: ≤ 0.01
fraction unbound at 4 h, 100 µM ([11]; Tables 2 and 4, mouse plasma, read-out: fup, fraction unbound in mouse plasma): 0.23
fraction unbound at 4 h, 100 µM [11, 16]: 0.234
Mics (hu) comp remaining 60 min [12]: 132%
microsomal CLint at 10 µM [12]: < 2 µL/min/mg
half-life [13, 17]: 8.3 min
clearance [13, 18]: 7.2 mL/min/kg
solubility at 2 h [14]: 85 µM (≈ 53.4 µg/mL)
Structure (SMILES): COC(=O)c1ccc2cc(-c3nc(Cl)nc4c3ccn4[C@@H]3O[C@H](COP(=O)(O)CP(=O)(O)O)[C@@H](O)[C@H]3O)ccc2c1 [7B.29]
IC50 [6]: > 10 µM
IC50 [7]: > 10 µM
IC50 [8]: > 10 µM
IC50 [9]: > 10 µM
IC50 [10]: > 10 µM

dG_exp, experimental binding free energy [2]: –12.9 kcal/mol
half-life at 10 µM [3]: > 120 min
half-life at 10 µM [4]: > 120 min
fraction unbound at 4 h, 100 µM [5, 19]: 0.13
fraction unbound at 4 h, 100 µM [5, 15]: 0.004
fraction unbound at 4 h, 100 µM [11, 16]: 0.135
clearance [13, 20]: moderate clearance
half-life [13, 17]: 143 min
clearance [13, 18]: 3.5 mL/min/kg
solubility at 2 h [14]: > 100 µM
Structure (SMILES): O=P(O)(O)CP(=O)(O)OC[C@H]1O[C@@H](n2ccc3c(-c4cccc5c4oc4ccccc45)ncnc32)[C@H](O)[C@@H]1O [4A.10]
IC50 [6]: > 10 µM
IC50 [7]: > 10 µM
IC50 [8]: 9.5 µM
IC50 [9]: > 10 µM
IC50 [10]: > 10 µM

Mics (m) comp remaining 60 min [1]: 96%
microsomal CLint at 10 µM [1]: 1 µL/min/mg
dG_exp, experimental binding free energy [2]: –13.4 kcal/mol
half-life at 10 µM [3]: > 120 min
half-life at 10 µM [4]: > 120 min
fraction unbound at 4 h, 100 µM [5, 15]: 0.045
fraction unbound at 4 h, 100 µM [11, 16]: 0.664
Mics (hu) comp remaining 60 min [12]: 103%
microsomal CLint at 10 µM [12]: < 1 µL/min/mg
solubility at 2 h [14]: 80 µM (≈ 39.5 µg/mL)
Structure (SMILES): O=P(O)(O)CP(=O)(O)OC[C@H]1O[C@@H](n2ccc3c(-c4ccco4)nc(F)nc32)[C@H](O)[C@@H]1O [14D.1, [(5-{[2-Fluoro-4-(furan-2-yl)-7H-pyrrolo[2,3-d]pyrimidin-7-yl]-β-D-ribofuranosyl}oxy)phosphonomethyl]phosphonic Acid]
IC50 [6]: > 10 µM
IC50 [7]: > 10 µM
IC50 [8]: > 10 µM
IC50 [9]: > 10 µM
IC50 [10]: > 10 µM

Mics (m) comp remaining 60 min [1]: 134%
microsomal CLint at 10 µM [1]: < 2 µL/min/mg
dG_exp, experimental binding free energy [2]: –14.1 kcal/mol
half-life at 10 µM [3]: > 120 min
half-life at 10 µM [4]: > 120 min
fraction unbound at 4 h, 100 µM [5, 15]: ≤ 0.01
fraction unbound at 4 h, 100 µM [11, 16]: ≤ 0.01
Mics (hu) comp remaining 60 min [12]: 147%
microsomal CLint at 10 µM [12]: < 2 µL/min/mg
solubility at 2 h [14]: > 100 µM
Structure (SMILES): O=P(O)(O)CP(=O)(O)OC[C@H]1O[C@@H](n2ccc3c(-c4ccc5cc(OCc6ccccc6)ccc5c4)nc(Cl)nc32)[C@H](O)[C@@H]1O [7B.31]
IC50 [6]: > 10 µM
IC50 [7]: > 10 µM
IC50 [8]: > 10 µM
IC50 [9]: > 10 µM
IC50 [10]: > 10 µM

Mics (m) comp remaining 60 min [1]: 94%
microsomal CLint at 10 µM [1]: 1 µL/min/mg
dG_exp, experimental binding free energy [2]: –12.8 kcal/mol
half-life at 10 µM [3]: > 120 min
half-life at 10 µM [4]: > 120 min
fraction unbound at 4 h, 100 µM [5, 15]: 0.108
fraction unbound at 4 h, 100 µM [11, 16]: 0.594
Mics (hu) comp remaining 60 min [12]: 96%
microsomal CLint at 10 µM [12]: 1 µL/min/mg
solubility at 2 h [14]: 81 µM (≈ 43.9 µg/mL)
Structure (SMILES): O=P(O)(O)CP(=O)(O)OC[C@H]1O[C@@H](n2ccc3c(-c4cccc5c4OCCC5)ncnc32)[C@H](O)[C@@H]1O [4A.13]
IC50 [6]: > 10 µM
IC50 [7]: > 10 µM
IC50 [8]: > 10 µM
IC50 [9]: > 10 µM
IC50 [10]: > 10 µM
